Test results taken from US20240287614A1, “RECIPROCAL MICRORNA-MRNA PAIRINGS AS BIOMARKERS AND THERAPEUTIC TARGETS IN CANCER” (UNIVERSITY OF MARYLAND, EASTERN SHORE, priority 2023, published 2024).

Legend:
[1] = test system: prostate cancer (LNCaP and PC-3) and prostate cancer (RC77 T/E and MDA PCa 2b) cell lines; assay: Caspase 3/7 activity-based apoptosis assay, prostate cancer cell lines; design: species or system human
Procedure: […] RC77 T/E, a primary prostate cancer cell line derived from a patient, was kindly provided by Dr. Johng Rhim at Center for Prostate Disease Research (CPDR) in Rockville, MD. LNCaP and PC-3 were served as prostate cancer cell line models, and RC77 T/E and MDA PCa 2b were served as prostate cancer cell models in the study. The cells were cultured in specific cell culture media, LNCaP was cultured in RPMI with 10% fetal bovine serum (FBS), PC-3 was cultured in DMEM with 10% FBS, MDA PCa 2b were cultured in BRFF-HPC1 with 20% FBS and RC77 T/E was cultured in Keratinocyte SFM with Human Recombinant Epidermal Growth Factor (EGF 1-53) and Bovine Pituitary Extract (BPE). Cells were maintained at 37° C. in a 5% CO2 incubator. LNCaP, PC-3 and MDA PCa 2b cells were seeded at density 3×10^4 cells/well in 6-well plates. RC77 T/E cells were seeded at density 5×10^4 cells/well in 6-well plates. The cells were allowed to grow for 24 h and then were either transfected with miR-34a-5p mimic, miR-99b-5p mimic, or miR-96-5p antagomir using DharmaFECT4 transfection reagent (Dharmacon), according to the manufacturer's protocol. After 24 h, the cells were replaced with fresh media then incubated for 24 h. miR-34a-5p mimic, miR-99b-5p mimic, miR-96-5p antagomir, and nonsense miRNA mimic and antagomir controls were purchased from Ambion. Nonsense/scrambled miRNA mimic and antagomir were used as negative controls.
For the measurement of apoptosis initiation by transfection of miRNA mimic or antagomir in prostate cancer cells, the transfected cells 5000 cells/well were seeded onto 96-well cell culture plates (Corning) and then incubated overnight. The miRNA mimic/antagomir transfected cells were then treated with vehicle or […] of Docetaxel. 24 h after the vehicle or drug treatment, the apoptosis assays were performed using Apo-ONE Caspase-3/7 Assay Kit (Promega Corporation) according to the protocol described by the manufacturer. 100 μL of homogeneous Caspase-3/7 reagent was added to the sample plate and incubated at room temperature for 1 h. Fluorescence was detected for measuring the apoptosis state (Caspase 3/7 activity) using Biotek Synergy HT Microplate Reader (BioTek) at wavelengths of 499 nm and 521 nm for excitation and emission, respectively.

[2] = test system: HT-29, SW620, MDA MB 231, MCF7, A549, and H1299; assay: Caspase 3/7 activity-based apoptosis assay, colon, breast and lung cancer cell lines; design: species or system human
Procedure: HT-29, SW620, MDA MB 231, MCF7, A549, and H1299 were seeded at a density of 3×10^4 cells/well in 96-well plates. The cells were grown overnight and then followed by transfections. After 24 h, fresh media were applied to replace the transfection reagent-containing media with […] of docetaxel or vehicle, then the cells were incubated for an additional 24 h. The Apo-ONE Caspase-3/7 Assay Kit (Promega Corporation) was used to measure apoptosis according to the protocol described by the manufacturer. Then, 100 μL of homogeneous Caspase-3/7 reagent was added to each well and the plate incubated at room temperature for 30 min to 2 h. Fluorescence was detected for measuring (at wavelengths of 499/521 nm excitation/emission) the apoptosis state (Caspase 3/7 activity) using Biotek Synergy HT Microplate Reader (BioTek).

In the case of “miR-99b-5p mimic: miRNA mimic of miR-99b-5p (SEQ ID NO: 2, CACCCGUAGAACCGACCUUGCG), purchased from Ambion (listed as RNA, chemistry not given here; listed as Homo sapiens)”, the “docetaxel-induced cytotoxicity (caspase 3/7 activity), combination with docetaxel” value ([1]; LNCaP cells, 11 mM of Docetaxel, 24 h) is reported as “further enhanced”, the “apoptosis (caspase 3/7 activity), transfection in the presence of docetaxel” value ([1]; RC77 T/E and MDA PCa 2b, 11 mM of Docetaxel, 24 h) is reported as “significantly induced apoptosis” and the “cell apoptosis (caspase 3/7 activity) compared with NS transfected cells” value ([1]; absence of docetaxel (vehicle control), LNCaP, PC-3, RC77 T/E, MDA PCa 2b) is reported as “overall generalized or significant increase”. For the same substance, the “cell apoptosis (caspase 3/7 activity) in the presence of docetaxel” value ([2]; HT-29, SW620, MCF-7, A549, H1299, 11 mM of docetaxel, 24 h) was “moderate to significant cell apoptosis” and the “apoptosis (caspase 3/7 activity), single agent” value ([2]; colon, breast, lung cancer cells, without docetaxel (vehicle)) was “not sufficient to initiate significant apoptosis”.
